# Assay results taken from the NIST ThermoML archive (doi:10.1016/j.jct.2016.12.006).
# ± gives the expanded uncertainty stated by the source.
# Assay: refractive index (Na D-line) (dimensionless)
# Settings: 303.15 K; 101.33 kPa; Liquid; Standard Abbe refractometry
row,SMILES,refractive index
1,CCOC(C)=O [ethyl acetate],1.3675 ± 0.004
2,CC(=O)OC(C)C [1-methylethyl ethanoate],1.3701 ± 0.004
3,"OCC(F)(F)C(F)F [2,2,3,3-tetrafluoro-1-propanol]",1.3196 ± 0.004
